Results reported in patent US20240383867A1, “CRYSTALLINE FORMS OF ISOXAZOLINE COMPOUND” (ELANCO US, INC., priority 2021, published 2024).

Experiments:
[1] = assay type: physicochemical
Protocol: 53 mg of Sample 42 (Form A) and 47 mg of Sample (Form C) were suspended in 1 mL of an ethyl acetate/heptane (1:3) mixture at room temperature. After two hours of stirring at room temperature, one additional mL of the solvent mixture was added to the suspension. After another 1 hour of stirring, the suspension was seeded with Sample 42 and Sample 55 (about 10-20 mg). Further stirring was conducted at room temperature for one week. Then the suspension was filtered using a centrifugal unit filter (PTFE, 0.2 μm, 5000 rpm, room temperature).
The remaining substance from Sample 56 (approx. 42 mg) was further equilibrated in 0.5 mL of an ethyl acetate/heptane (1:3) mixture at room temperature After one month of stirring, the suspension was filtered using a centrifugal unit filter (PTFE, 0.2 μm, 5000 rpm, room temperature). […] The resulting Crystalline Form C of Example 27a is herein referred to as Sample 56A.
71 mg of Sample 42 (Form A) and 73 mg of Sample 55 (Form C) were suspended in 1 mL of an ethyl acetate/heptane (1:3) mixture at 60° C. After two hours of stirring at 60° C., one additional mL of the solvent mixture was added to the suspension. After another 1 hour of stirring, the suspension was seeded with Samples 42 and 55 (about 10-20 mg). Further stirring was conducted at 60° C. After four days of stirring, a solution with material on the glass side was obtained. Approx. […]

[2] = hygroscopicity testing via dynamic vapor sorption (DVS); assay type: physicochemical; settings: for hygroscopicity classification: DVS, class based on mass gain at 85% RH; for absorption of water (DVS): storage at 95% relative humidity for five hours
Protocol: Sorption isotherms were obtained using an SPS11-100n Sorptions Prufsystem from ProUmid (formerly Projekt Messtechnik). About 5 mg to about 20 mg of sample were placed into an aluminum sample plan on top of a microbalance and allowed to equilibrate at 50% relative humidity (RH) before starting the following applied measurement program. Humidity change rates of 5% per hour were used. The applied measurement program can be described as follows: • (1) 2 h at 50% RH • (2) 50→0% RH (5%/h); 5 h at 0% RH • (3) 0→95% RH (5%/h); 5 h at 95% RH • (4) 95→0% RH (5%/h); 5 h at 0% RH • (5) 0→95% RH (5%/h); 5 h at 95% RH • (6) 95→50% RH (5%/h); 2 h at 50% RH. The sample was recovered after completion of the isotherm and re-analyzed by XRPD. Hygroscopicity was classified based on the mass gain at 85% relative humidity (RH) relative to the initial mass as follows: deliquescent (sufficient water adsorbed to form a liquid), very hygroscopic (mass increase […]), hygroscopic (mass increase <15% but ≥2%), slightly hygroscopic (mass increase <2% but ≥0.2%), or non-hygroscopic (mass increase <0.2%).

[3] = solubility in common organic solvents; assay type: physicochemical
[4] = system: fleas (Ctenocephalides felis); settings: in vitro ingesting activity; cited from earlier work
[5] = in vivo; cited from earlier work

| Structure (SMILES) | relative stability of Form A versus Form C [1] | hygroscopicity classification [2] | absorption of water (DVS) [2] | other results |
| --- | --- | --- | --- | --- |
| Cc1cc(C2=NO[C@@](c3cc(C(F)(F)F)cc(Cl)c3F)(C(F)(F)F)C2)ccc1C(=O)NCC(=O)NCC(F)(F)F [Crystalline Form A, 2-methyl-N-[2-oxo-2-(2,2,2-trifluoroethylamino)ethyl]-4-[(5S)-5-[3-chloro-2-fluoro-5-(trifluoromethyl)phenyl]-5-(trifluoromethyl)-4H-isoxazol-3-yl]benzamide] | stable form at room temperature | slightly hygroscopic (slightly hygroscopic (mass increase <2% but ≥0.2%)) | ~0.5% | – |
| Cc1cc(C2=NO[C@@](c3cc(C(F)(F)F)cc(Cl)c3F)(C(F)(F)F)C2)ccc1C(=O)NCC(=O)NCC(F)(F)F [Crystalline Form B, 2-methyl-N-[2-oxo-2-(2,2,2-trifluoroethylamino)ethyl]-4-[(5S)-5-[3-chloro-2-fluoro-5-(trifluoromethyl)phenyl]-5-(trifluoromethyl)-4H-isoxazol-3-yl]benzamide] | – | – | up to 1.2% | – |
| Cc1cc(C2=NO[C@@](c3cc(C(F)(F)F)cc(Cl)c3F)(C(F)(F)F)C2)ccc1C(=O)NCC(=O)NCC(F)(F)F [Form C, 2-methyl-N-[2-oxo-2-(2,2,2-trifluoroethylamino)ethyl]-4-[(5S)-5-[3-chloro-2-fluoro-5-(trifluoromethyl)phenyl]-5-(trifluoromethyl)-4H-isoxazol-3-yl]benzamide] | stable form at 30° and above | – | – | – |
| Cc1cc(C2=NO[C@@](c3cc(C(F)(F)F)cc(Cl)c3F)(C(F)(F)F)C2)ccc1C(=O)NCC(=O)NCC(F)(F)F [amorphous form of the compound of Formula 1] [2-methyl-N-[2-oxo-2-(2,2,2-trifluoroethylamino)ethyl]-4-[(5S)-5-[3-chloro-2-fluoro-5-(trifluoromethyl)phenyl]-5-(trifluoromethyl)-4H-isoxazol-3-yl]benzamide] | – | slightly hygroscopic (slightly hygroscopic (mass increase <2% but ≥0.2%)) | ~1.5% | solid form after DVS measurement (XRPD) ([2]; XRPD after DVS): No crystallization occurred; solubility in common organic solvents [3]: high solubility |
| Cc1cc(C2=NO[C@@](c3cc(C(F)(F)F)cc(Cl)c3F)(C(F)(F)F)C2)ccc1C(=O)NCC(=O)NCC(F)(F)F [compound of Formula 1, 2-methyl-N-[2-oxo-2-(2,2,2-trifluoroethylamino)ethyl]-4-[(5S)-5-[3-chloro-2-fluoro-5-(trifluoromethyl)phenyl]-5-(trifluoromethyl)-4H-isoxazol-3-yl]benzamide] | – | – | – | EC50 [4]: < 1 ppm; half-life [5]: 50 days |
